# Reference: patent US20260248087A1, “GENERATING DOUBLED HAPLOID PLANTS” (Syngenta Crop Protection AG, priority 2023, published 2026)
# Legend:
# isolated embryos [1] = assay: Potted rate, transplant rate and seedling height, thiamethoxam co-treatment during colchicine doubling; format: in vivo, maize
# Source text: (§1) As used herein, the term “potted rate” or “potting rate” refers to the percent of germinated embryos successfully transferred to soil from total treated haploid embryos. The “potted rate” is used as an indication of plant health in monitoring the success of recovery and growth after treatment of haploids. As used herein, the term “transplant rate” refers to the survival of healthy plants after embryos were germinated and transferred to soil.
# In addition to testing of safeners such as metcamifen, testing the effects of other compounds, such as thiamethoxam (TMX), were completed. Isolated embryos were co-treated with TMX during colchicine doubling in the doubling media. The co-treatments were allowed to incubate for 24 or 48 hours. Four genotypes representing two heterotic groups were tested with replication. The effect on potting rate from in vitro culture was evaluated.
# Initial testing measured the effect of TMX at concentrations of 0, 150, or 750 mg/L for 24 or 48 hours. […] The strongest effect of TMX co-treatment seen with the 48-hour duration was at 750 mg/L TMX compared to the control.
# Further testing was done and TMX was applied to isolated embryos at levels of 0, 750, 1500, 2000 mg/L during colchicine co-treatment. The co-treatments were incubated for 24 or 48 hours.
# TMX was applied to isolated embryos at levels of 0, 2000, 4000, 8000 mg/L during colchicine co-treatment. The co-treatments were incubated for durations of 24 or 48 hours.
# TMX was applied to isolated embryos at levels of 0, 2000, 4000, or 6000 mg/L during colchicine co-treatment. The co-treatments were incubated for durations of 24 or 48 hours. […] The highest percent transplanted rates were 86% and 83% for co-treatments 4000 mg/L at 24 hours and 6000 mg/L at 48 hours, respectively (see Table 8).
# isolated embryos [2] = assay: Potting and transplant rate, thiamethoxam liquid media pre-treatment prior to colchicine doubling; format: in vivo, maize
# Source text: as §1
# TMX pre-treatment application to isolated embryos prior to colchicine doubling was done in 2 genotypes with replication. Isolated embryos were plated on filter paper and pre-treated with a formulation of TMX at concentrations ranging from 10-1000 mg/L in liquid media. The pre-treatments incubated for 0.5 to 24 hours. Following the pre-treatment, embryos were treated with colchicine for chromosome doubling and plant regeneration. The effect on potting rate and transplant rate were evaluated (see Table 10).
# In a follow-up experiment, the liquid pre-treatment was tested at 30 minute and 1-hour durations to determine if a shorter duration would result in better potting and transplant rates than observed in the 1 hour treatments shown in Table 10. These were performed in the same manner as described above, in triplicate.
# GST27 = GST27 induction, metcamifen post-treatment during germination; format: cell-based, maize; conditions: for GST27 Mean: post-treatment in germination media (2.5 g/L Gelzan)
# Protocol: For the examples below, GST27 was used as a quick indicator for treatment effectiveness.
# Doubled haploid embryos were treated with metcamifen during germination. Metcamifen was tested in the germination media at 0, 5, and 10 mg/L after colchicine treatment completion for 24 or 48 hours. The germination media comprised Gelzan at a concentration of 3.5 g/L. Four genotypes were tested representing two heterotic groups. […] The percent potting rate was not increased as result of these post-treatments. […] This led to a looping of the roots. A reduction in Gelzan concentration from 3.5 g/L to 2.5 g/L was tested (comparison data not presented here). The experiments were then carried out with 2.5 g/L Gelzan for metcamifen post-treatments while the control (0 metcamifen) contained 3.5 g/L Gelzan. Metcamifen was tested as 0, 5, 10 and 20 mg/L after colchicine treatment completion for 24 and 48 hours. The reduction in Gelzan of the metcamifen post-treatments led to a higher percent potting rate (see Table 5).
# [3] = Table 6: co-treatment with colchicine, TMX 750 mg/L, 24 hours
# [4] = Table 6: co-treatment with colchicine, TMX 750 mg/L, 48 hours
# [5] = Table 6: co-treatment with colchicine, TMX 1500 mg/L, 24 hours
# [6] = Table 6: co-treatment with colchicine, TMX 1500 mg/L, 48 hours
# [7] = Table 6: co-treatment with colchicine, TMX 2000 mg/L, 24 hours
# [8] = Table 6: co-treatment with colchicine, TMX 2000 mg/L, 48 hours
# [9] = Table 7: co-treatment with colchicine, TMX 2000 mg/L, 24 hours
# [10] = Table 7: co-treatment with colchicine, TMX 2000 mg/L, 48 hours
# [11] = Table 7: co-treatment with colchicine, TMX 4000 mg/L, 24 hours
# [12] = Table 7: co-treatment with colchicine, TMX 4000 mg/L, 48 hours
# [13] = Table 7: co-treatment with colchicine, TMX 8000 mg/L, 24 hours
# [14] = Table 7: co-treatment with colchicine, TMX 8000 mg/L, 48 hours
# [15] = Table 8: co-treatment with colchicine, TMX 2000 mg/L, 24 hours
# [16] = Table 8: co-treatment with colchicine, TMX 2000 mg/L, 48 hours
# [17] = Table 8: co-treatment with colchicine, TMX 4000 mg/L, 24 hours
# [18] = Table 8: co-treatment with colchicine, TMX 4000 mg/L, 48 hours
# [19] = Table 8: co-treatment with colchicine, TMX 6000 mg/L, 24 hours
# [20] = Table 8: co-treatment with colchicine, TMX 6000 mg/L, 48 hours
# [21] = Table 10: liquid media pre-treatment, TMX 10 mg/L, 1 hr
# [22] = Table 10: liquid media pre-treatment, TMX 10 mg/L, 24 hr
# [23] = Table 10: liquid media pre-treatment, TMX 100 mg/L, 1 hr
# [24] = Table 10: liquid media pre-treatment, TMX 100 mg/L, 24 hr
# [25] = Table 10: liquid media pre-treatment, TMX 1000 mg/L, 1 hr
# [26] = Table 10: liquid media pre-treatment, TMX 1000 mg/L, 24 hr
# [27] = Table 11: liquid pre-treatment, TMX 100 mg/L, 30 min
# [28] = Table 11: liquid pre-treatment, TMX 100 mg/L, 1 hr
# [29] = Table 11: liquid pre-treatment, TMX 1000 mg/L, 30 min
# [30] = Table 11: liquid pre-treatment, TMX 1000 mg/L, 1 hr
smiles,measurement,setting,value
"CN1COCN(Cc2cnc(Cl)s2)/C1=N\[N+](=O)[O-] [TMX, thiamethoxam]",Potted Rate Mean,isolated embryos [1]; [3],52%
same,Transplant Rate Mean,isolated embryos [1]; [3],33%
same,Potted Rate Mean,isolated embryos [1]; [4],12%
same,Transplant Rate Mean,isolated embryos [1]; [4],9%
same,Potted Rate Mean,isolated embryos [1]; [5],65%
same,Transplant Rate Mean,isolated embryos [1]; [5],41%
same,Potted Rate Mean,isolated embryos [1]; [6],18%
same,Transplant Rate Mean,isolated embryos [1]; [6],12%
same,Potted Rate Mean,isolated embryos [1]; [7],74%
same,Transplant Rate Mean,isolated embryos [1]; [7],50%
same,Potted Rate Mean,isolated embryos [1]; [8],32%
same,Transplant Rate Mean,isolated embryos [1]; [8],21%
same,Potted Rate Mean,isolated embryos [1]; [9],76%
same,Transplant Rate Mean,isolated embryos [1]; [9],73%
same,Potted Rate Mean,isolated embryos [1]; [10],22%
same,Transplant Rate Mean,isolated embryos [1]; [10],15%
same,Potted Rate Mean,isolated embryos [1]; [11],82%
same,Transplant Rate Mean,isolated embryos [1]; [11],79%
same,Potted Rate Mean,isolated embryos [1]; [12],67%
same,Transplant Rate Mean,isolated embryos [1]; [12],61%
same,Potted Rate Mean,isolated embryos [1]; [13],47%
same,Transplant Rate Mean,isolated embryos [1]; [13],45%
same,Potted Rate Mean,isolated embryos [1]; [14],20%
same,Transplant Rate Mean,isolated embryos [1]; [14],16%
same,Potted Rate Mean,isolated embryos [1]; [15],68%
same,Transplant Rate Mean,isolated embryos [1]; [15],62%
same,Potted Rate Mean,isolated embryos [1]; [16],27%
same,Transplant Rate Mean,isolated embryos [1]; [16],26%
same,Potted Rate Mean,isolated embryos [1]; [17],90%
same,Transplant Rate Mean,isolated embryos [1]; [17],86%
same,Potted Rate Mean,isolated embryos [1]; [18],63%
same,Transplant Rate Mean,isolated embryos [1]; [18],56%
same,Potted Rate Mean,isolated embryos [1]; [19],86%
same,Transplant Rate Mean,isolated embryos [1]; [19],74%
same,Potted Rate Mean,isolated embryos [1]; [20],89%
same,Transplant Rate Mean,isolated embryos [1]; [20],83%
same,Seedling height (overall plant height),"isolated embryos [1]; initial testing, TMX 150 or 750 mg/L, 24-hour and 48-hour",taller
same,potting rate,"isolated embryos [1]; initial testing, TMX 150 or 750 mg/L, 24-hour co-treatment",≥ 80%
same,Potting Rate Mean,isolated embryos [2]; [21],55%
same,Transplant Rate Mean,isolated embryos [2]; [21],51%
same,Potting Rate Mean,isolated embryos [2]; [22],7%
same,Transplant Rate Mean,isolated embryos [2]; [22],7%
same,Potting Rate Mean,isolated embryos [2]; [23],38%
same,Transplant Rate Mean,isolated embryos [2]; [23],37%
same,Potting Rate Mean,isolated embryos [2]; [24],15%
same,Transplant Rate Mean,isolated embryos [2]; [24],15%
same,Potting Rate Mean,isolated embryos [2]; [25],58%
same,Transplant Rate Mean,isolated embryos [2]; [25],55%
same,Potting Rate Mean,isolated embryos [2]; [26],11%
same,Transplant Rate Mean,isolated embryos [2]; [26],11%
same,Potting Rate Mean,isolated embryos [2]; [27],68%
same,Transplant Rate Mean,isolated embryos [2]; [27],54%
same,Potting Rate Mean,isolated embryos [2]; [28],77%
same,Transplant Rate Mean,isolated embryos [2]; [28],66%
same,Potting Rate Mean,isolated embryos [2]; [29],51%
same,Transplant Rate Mean,isolated embryos [2]; [29],42%
same,Potting Rate Mean,isolated embryos [2]; [30],74%
same,Transplant Rate Mean,isolated embryos [2]; [30],56%
"CNC(=O)Nc1ccc(S(=O)(=O)NC(=O)c2ccccc2OC)cc1 [Metcamifen, metcamifen]",GST27 expression versus control,"GST27; post-treatment 5 and 10 mg/L, 3.5 g/L Gelzan, 24 and 48 hours",higher than the control group
same,GST27 Mean,"GST27; 5 mg/L, Duration 24 hours",327 ng/mg TSP
same,GST27 Mean,"GST27; 5 mg/L, Duration 48 hours",317 ng/mg TSP
same,GST27 Mean,"GST27; 10 mg/L, Duration 24 hours",345 ng/mg TSP
same,GST27 Mean,"GST27; 10 mg/L, Duration 48 hours",290 ng/mg TSP
same,GST27 Mean,"GST27; 20 mg/L, Duration 24 hours",404 ng/mg TSP
same,GST27 Mean,"GST27; 20 mg/L, Duration 48 hours",400 ng/mg TSP
